Reference: US9469615B2, “Quinoxalines and AZA-quinoxalines as CRTH2 receptor modulators” (Merck Sharp & Dohme Corp., priority 2010, dated 2016)
pKi: −log10 of the molar value.

The compounds below were run against T1, hCRTH2 (Homo sapiens, UniProt Q9Y5Y4) (assay: Radioligand binding assay ([3H]PGD2 competition, HEK-hCRTH2 membranes)). Conditions: [3H]PGD2 binding, rated A-E (Table A).
T1 construct: expressed in transfected cells; host or cells: HEK (human embryonic kidney) cells expressing hCRTH2; membrane preparation
T1 sequence (Q9Y5Y4 1-395): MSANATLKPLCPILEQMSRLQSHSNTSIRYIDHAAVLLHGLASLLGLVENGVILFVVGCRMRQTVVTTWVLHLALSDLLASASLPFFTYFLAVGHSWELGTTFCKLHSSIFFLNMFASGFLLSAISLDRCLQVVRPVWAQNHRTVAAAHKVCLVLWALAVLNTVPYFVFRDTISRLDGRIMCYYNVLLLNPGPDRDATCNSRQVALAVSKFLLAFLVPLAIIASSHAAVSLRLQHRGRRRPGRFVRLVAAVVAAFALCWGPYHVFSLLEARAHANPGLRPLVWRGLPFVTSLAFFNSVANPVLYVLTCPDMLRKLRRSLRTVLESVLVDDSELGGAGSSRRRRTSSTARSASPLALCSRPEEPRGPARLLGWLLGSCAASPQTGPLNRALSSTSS
Method in brief: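 Membranes (8-20 μg protein) from HEK-hCRTH2 cells were incubated 60 min at room temperature with 3.0 nM [3H]PGD2 in 50 mM Tris-HCl pH 7.4, 1 mM EDTA, 2 mM MnCl2, 1% DMSO. Non-specific binding defined with 10 μM PGD2. Bound radioactivity counted after filtration.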

Row | pKi | SMILES
1 | 7.70 to 8.68 | C[C@]1(c2ccccc2)CCCN(C(=O)c2ccc3nc(-c4ccccc4)c(CCCCC(=O)O)nc3c2)C1 [compound 170, 7-[(3(R)-methyl-3-phenyl-1-piperidinyl)carbonyl]-3-phenyl-2-quinoxalinepentanoic acid]
2 | 7.70 to 8.68 | C[C@@]1(c2ccccc2)CCCN(C(=O)c2ccc3nc(-c4ccccc4)c(CCCCC(=O)O)nc3c2)C1 [compound 171, 7-[(3(S)-methyl-3-phenyl-1-piperidinyl)carbonyl]-3-phenyl-2-quinoxalinepentanoic acid]
3 | 8.70 to 10.00 | O=C(O)CCCCc1nc2cc(C(=O)N3CC(c4ccccc4)C3)ccc2nc1-c1ccccc1 [compound 172, 3-phenyl-7-[(3-phenyl-1-azetidinyl)carbonyl]-2-quinoxalinepentanoic acid]
4 | 8.70 to 10.00 | O=C(O)CCCCc1nc2cc(C(=O)N3CC(c4ccccc4)C3)ccc2nc1-c1ccc(F)cc1 [compound 173, 3-(4-fluorophenyl)--7-[(3-phenyl-1-azetidinyl)carbonyl]-2-quinoxalinepentanoic acid]
5 | 8.70 to 10.00 | N#Cc1ccc(C2CN(C(=O)c3ccc4nc(-c5ccccc5)c(CCCCC(=O)O)nc4c3)C2)cc1 [compound 174, 7-[[3-(4-cyanophenyl)-1-azetidinyl]carbonyl]-3-phenyl-2-quinoxalinepentanoic acid]
6 | 7.70 to 8.68 | N#Cc1cccc(C2CN(C(=O)c3ccc4nc(-c5ccccc5)c(CCCCC(=O)O)nc4c3)C2)c1 [compound 175, 7-[[3-(3-cyanophenyl)-1-azetidinyl]carbonyl]-3-phenyl-2-quinoxalinepentanoic acid]
7 | 7.70 to 8.68 | O=C(O)CCCCc1nc2cc(C(=O)N3CCCC(c4ccccc4)C3)ccc2nc1-c1ccc(Cl)cc1 (stereo not shown) [compound 176, 3-(4-chlorophenyl)-7-[(3-phenyl-1-piperidinyl)carbonyl]-2-quinoxalinepentanoic acid]
8 | 7.70 to 8.68 | O=C(O)CCCCc1nc2cc(C(=O)N3CCOCC3)ccc2nc1-c1ccc(Cl)cc1 [compound 177, 3-(4-chlorophenyl)-7-(4-morpholinylcarbonyl)-2-quinoxalinepentanoic acid]
9 | 8.70 to 10.00 | C[C@@H](NC(=O)c1ccc2nc(-c3ccc(Cl)cc3)c(CCCCC(=O)O)nc2c1)c1cccc(F)c1 [compound 178, 3-(4-chlorophenyl)-7-[[[1(R)-(3-fluorophenyl)ethyl]amino]carbonyl]-2-quinoxalinepentanoic acid]
10 | 8.70 to 10.00 | C[C@H](NC(=O)c1ccc2nc(-c3ccc(Cl)cc3)c(CCCCC(=O)O)nc2c1)c1cccc(F)c1 [compound 179, 3-(4-chlorophenyl)-7-[[[1(S)-(3-fluorophenyl)ethyl]amino]carbony!]-2-quinoxalinepentanoic acid]
11 | 8.70 to 10.00 | C[C@@H](NC(=O)c1ccc2nc(-c3ccc(Cl)cc3)c(CCCCC(=O)O)nc2c1)c1cccc(Cl)c1 [compound 180, 3-(4-chlorophenyl)-7-[[[1(R)-(3-chlorophenyl)ethyl]amino]carbonyl]-2-quinoxalinepentanoic acid]
12 | 8.70 to 10.00 | C[C@H](NC(=O)c1ccc2nc(-c3ccc(Cl)cc3)c(CCCCC(=O)O)nc2c1)c1cccc(Cl)c1 [compound 181, 3-(4-chlorophenyl)-7-[[[1(S)-(3-chlorophenyl)ethyl]amino]carbonyl]-2-quinoxalinepentanoic acid]
13 | 7.70 to 8.68 | C[C@@H](NC(=O)c1ccc2nc(-c3ccc(Cl)cc3)c(CCCCC(=O)O)nc2c1)c1cccnc1 [compound 182, 3-(4-chlorophenyl)-7-[[[1(R)-(3-pyridinyl)ethyl]amino]carbonyl]-2-quinoxalinepentanoic acid]
14 | 7.70 to 8.68 | C[C@H](NC(=O)c1ccc2nc(-c3ccc(Cl)cc3)c(CCCCC(=O)O)nc2c1)c1cccnc1 [compound 183]
15 | 8.70 to 10.00 | O=C(O)CCCCc1nc2cc(C(=O)N[C@@H]3CCCc4cc(F)ccc43)ccc2nc1-c1ccc(Cl)cc1 [compound 184, 3-(4-chlorophenyl)-7-[[(6-fluoro-1,2,3,4-tetrahydro-1(R)-naphthalenyl)amino]carbonyl]-2-quinoxalinepentanoic acid]
16 | 7.70 to 8.68 | O=C(O)CCCCc1nc2cc(C(=O)N[C@H]3CCCc4cc(F)ccc43)ccc2nc1-c1ccc(Cl)cc1 [compound 185, 3-(4-chlorophenyl)-7-[[(6-fluoro-1,2,3,4-tetrahydro-1(S)-naphthalenyl)amino]carbonyl]2-quinoxalinepentanoic acid]
17 | 8.70 to 10.00 | O=C(O)CCCCc1nc2cc(C(=O)N[C@@H]3CCCc4cc(Cl)ccc43)ccc2nc1-c1ccc(Cl)cc1 [compound 186, 3-(4-chlorophenyl)-7-[[(6-chloro-1,2,3,4-tetrahydro-1(R)-naphthalenyl)amino]carbonyl]-2-quinoxalinepentanoic acid]

Row | pKi | SMILES
18 | 7.70 to 8.68 | O=C(O)CCCCc1nc2cc(C(=O)N[C@H]3CCCc4cc(Cl)ccc43)ccc2nc1-c1ccc(Cl)cc1 [compound 187, 3-(4-chlorophenyl)-7-[[(6-chloro-1,2,3,4-tetrahydro-1(S)-naphthalenyl)amino]carbonyl]-2-quinoxalinepentanoic acid]
19 | 8.70 to 10.00 | O=C(O)CCCCc1nc2cc(C(=O)N3CCN(c4ccc(F)cc4)CC3)ccc2nc1-c1ccc(Cl)cc1 [compound 189, 3-(4-chlorophenyl)-7-[[4-(4-fluorophenyl)-1-piperazinyl]carbonyl]-2-quinoxalinepentanoic acid]
20 | 8.70 to 10.00 | O=C(O)CCCCc1nc2cc(C(=O)N3CCN(c4ccccc4F)CC3)ccc2nc1-c1ccc(Cl)cc1 [compound 190, 3-(4-chlorophenyl)-7-[[4-(2-fluorophenyl)-1-piperazinyl]carbonyl]-2-quinoxalinepentanoic acid]
21 | 8.70 to 10.00 | O=C(O)CCCCc1nc2cc(C(=O)N3CCN(c4ccc(Cl)cc4)CC3)ccc2nc1-c1ccc(Cl)cc1 [compound 191, 3-(4-chlorophenyl)-7-[[4-(4-chlorophenyl)-1-piperazinyl]carbonyl]-2-quinoxalinepentanoic acid]
22 | 7.70 to 8.68 | O=C(O)Cc1cccc(CCc2nc3cc(C(=O)NCc4cccc(F)c4)ccc3nc2-c2ccc(F)cc2)c1 [compound 192, 3-[2-[3-(4-fluorophenyl)-7-[[[(3-fluorophenyl)methyl]amino]carbonyl]-2-quinoxalinyl]ethyl]benzencacetic acid]
23 | 7.70 to 8.68 | O=C(O)Cc1cccc(CCc2nc3cc(C(=O)NCc4ccc(F)cc4)ccc3nc2-c2ccc(F)cc2)c1 [compound 193, 3-[2-[3-(4-fluorophenyl)-7-[[[(4-fluorophenyl)methyl]amino]carbonyl]-2-quinoxalinyl]ethyl] benzeneacetic acid]
24 | 6.70 to 7.70 | N#Cc1ccc(CNC(=O)c2ccc3nc(-c4ccc(F)cc4)c(CCc4cccc(CC(=O)O)c4)nc3c2)cc1 [compound 194]
25 | 6.70 to 7.70 | C[C@@H](NC(=O)c1ccc2nc(-c3ccc(F)cc3)c(CCc3cccc(CC(=O)O)c3)nc2c1)c1ccc(F)cc1 [compound 195, 3-[2-[3-(4-fluorophenyl)-7-[[[1(R)-(4-fluorophenyl)ethyl]amino]carbonyl]-2-quinoxalinyl]ethyl] benzeneacetic acid]
26 | 6.70 to 7.70 | C[C@H](NC(=O)c1ccc2nc(-c3ccc(F)cc3)c(CCc3cccc(CC(=O)O)c3)nc2c1)c1ccc(F)cc1 [compound 196]
27 | 6.15 to 6.70 | O=C(O)Cc1cccc(CCc2nc3cc(C(=O)N[C@@H](CCO)c4ccccc4)ccc3nc2-c2ccc(F)cc2)c1 [compound 197, 3-[2-[3-(4-fluorophenyl)-7-[[(3-hydroxy-1(S)-phenylpropyl)amino]carbonyl]-2-quinoxalinyl]ethyl] benzeneacetic acid]
28 | 7.70 to 8.68 | O=C(O)Cc1cccc(CCc2nc3cc(C(=O)N4CCC(c5ccccc5)CC4)ccc3nc2-c2ccc(F)cc2)c1 [compound 198, 3-[2-[3-(4-fluorophenyl)-7-[(4-phenyl-1-piperidinyl)carbonyl]-2-quinoxalinyl]ethyl] benzeneacetic acid]
29 | 7.70 to 8.68 | O=C(O)Cc1cccc(CCc2nc3cc(C(=O)N4CCN(c5ccccc5)CC4)ccc3nc2-c2ccc(F)cc2)c1 [compound 199, 3-[2-[3-(4-fluorophenyl)-7-[(4-phenyl-1-piperazinyl)carbonyl]-2-quinoxalinyl]ethyl] benzeneacetic acid]
30 | 7.70 to 8.68 | O=C(O)Cc1cccc(CCc2nc3cc(C(=O)N4CC(c5ccccc5)C4)ccc3nc2-c2ccc(F)cc2)c1 [compound 200, 3-[2-[3-(4-fluorophenyl)-7-[(3-phenyl-1-azetidinyl)carbonyl]-2-quinoxalinyl]ethyl] benzeneacetic acid]
31 | 8.70 to 10.00 | CN(Cc1cccc(F)c1)C(=O)c1ccc2nc(-c3ccc(F)cc3)c(CCc3cccc(CC(=O)O)c3)nc2c1 [compound 201]
32 | 8.70 to 10.00 | CN(Cc1ccccc1)C(=O)c1ccc2nc(-c3ccc(F)cc3)c(CCc3cccc(CC(=O)O)c3)nc2c1 [compound 202, 3-[2-[3-(4-fluorophenyl)-7-[[methyl(phenylmethyl)amino]carbonyl]-2-quinoxalinyl]ethyl] benzeneacetic acid]
33 | 7.70 to 8.68 | CC(CCCc1nc2cc(C(=O)NCc3cccc(F)c3)ccc2nc1-c1ccc(F)cc1)C(=O)O (stereo not drawn) [compound 203, 3-(4-fluorophenyl)-7-[[[(3-fluorophenyl)methyl]amino]carbonyl]-alpha-methyl-2-quinoxalinepentanoic acid]

Same assay, conditions: [3H]PGD2 binding, values in text

Row | pKi | SMILES
34 | 8.80 | O=C(O)CCCCc1nc2cc(C(=O)N3CC(c4ccccc4)C3)ccc2nc1-c1ccc(F)cc1 [compound 173, 3-(4-fluorophenyl)--7-[(3-phenyl-1-azetidinyl)carbonyl]-2-quinoxalinepentanoic acid]
35 | 9.22 | C[C@@H](NC(=O)c1ccc2nc(-c3ccc(Cl)cc3)c(CCCCC(=O)O)nc2c1)c1cccc(Cl)c1 [compound 180, 3-(4-chlorophenyl)-7-[[[1(R)-(3-chlorophenyl)ethyl]amino]carbonyl]-2-quinoxalinepentanoic acid]
36 | 7.84 | O=C(O)Cc1cccc(CCc2nc3cc(C(=O)NCc4ccc(F)cc4)ccc3nc2-c2ccc(F)cc2)c1 [compound 193, 3-[2-[3-(4-fluorophenyl)-7-[[[(4-fluorophenyl)methyl]amino]carbonyl]-2-quinoxalinyl]ethyl] benzeneacetic acid]
37 | 6.33 | O=C(O)Cc1cccc(CCc2nc3cc(C(=O)N[C@@H](CCO)c4ccccc4)ccc3nc2-c2ccc(F)cc2)c1 [compound 197, 3-[2-[3-(4-fluorophenyl)-7-[[(3-hydroxy-1(S)-phenylpropyl)amino]carbonyl]-2-quinoxalinyl]ethyl] benzeneacetic acid]
